We go through two molecules from US20080292619A1, “Pharmaceutical Composition Containing Meltrin Antagonist” (MOCHIDA PHARMACEUTICAL CO., LTD., priority 2004, published 2008).

In one data set the test system is meltrin α mRNA. Nature of the data set: Quantitative determination of human meltrin α expression in human preadipocyte (real time PCR). Format: cell-based. The note with it: antisense DNA transfected human preadipocyte; sense oligo DNA group = 100%. On the procedure:
First, the human preadipocyte for use in the assay (human preadipocytes-sq donor10547, POIETICS #PT-5001, Lot.3F0242, Sanko Junyaku Co., Ltd.) which had been adjusted to a cell concentration of 1×10^5 cells/mL was added to a 96 well culture plate at 1×10^2 to 1×10^4 cells/well/100 μL, and cultured overnight. In the meanwhile, the culture medium in which preadipocytes had been suspended at 1×10^5 cells/mL was added to a 6 well plate at 1600 μL/well, and growth medium was also added to the plate at 400 μL/well, and the cells were cultured overnight. 1 μg to 50 μg of synthetic oligo DNA was added to serum free adipocyte growth medium or serum. free D-MEM, and after adding 3 μL of FuGENE6 per 1 μg of oligo DNA, the mediums were allowed to stand at room temperature for 15 to 45 minutes. From the 6 well plate described above, 400 μL/well of the medium was removed and 400 μL/well of the culture medium containing the oligo DNA was added, and the plate was incubated at 37° C. for 18 hours in the presence of 5% CO2 to evaluate the level of expression of meltrin in Example 15. […]
After removing PBS from the plate, 0.5 mL/well of Trizol Reagent (Invitrogen) was added to the plate. […] After drying, the precipitate was dissolved in water not containing RNase, and absorbance at a wavelength of 260 nm was measured to determine the RNA concentration (1OD=40 μg/mL). […]
(In general: Quantitative PCR measures a nucleic acid by following its amplification.)

For another data set, the system named is human preadipocyte. As to the kind of experiment: Adipocyte proliferation and differentiation, neutral fat accumulation (Adipo Red). Type of data set: cell-based. Here is the method:
The differentiation medium was prepared by adding supplement kit PGM SingleQuots, #PT-9500, Lot.08101163 (Sanko Junyaku Co., Ltd.) to 100 mL of growth medium. 50 μL of the supernatant was removed from the 96 well plate prepared in Example 12, and 50 μL of the siRNA or the antisense oligonucleotide prepared in the differentiation medium was added, and incubation was conducted in a CO2 incubator for 5 days to 15 days.
The amount of neutral fat accumulated in the adipocyte was determined by fluorometry using Adipo Red stain.
After taking the 96 well plate out of the CO2 incubator, the plate was allowed to stand until it cooled to room temperature. The plate was centrifuged at 300 g (1200 rpm) for 10 minutes at room temperature to remove the medium. Next, the plate was gently washed with 200 μL/well of PBS (Sigma), and 200 μL/well of PBS was added to the well.
Next, 5 μL/well of Adipo Red Assay Reagent (Adipo Red, Cat. #PT-7009, Lot.3F0497, A Cambrex Company) was added, and the plate was allowed to stand at room temperature for at least 10 minutes to thereby stain the neutral fat that had accumulated in the adipocyte. The fluorescence intensity was measured in a fluorometer at an excitation wavelength of 485 nm and an emission wavelength of 535 nm to thereby determine the fat accumulation.
(§1) According to the method of Example 15, M82463 was added to the human preadipocyte incubation system at a concentration of 0.3 to 10 μg/mL so that the final concentration of the DMSO was 0.2%. As a control, a group having only the DMSO added to a final concentration of 0.2% was used.
After preparation of the antibody to the concentration of 0.100 mg/mL with physiological saline, 9 volumes of adipocyte differentiation medium was added to 1 volume of the antibody solution, and the solution was sterilized by filtering through a filter having a diameter of 0.22 μm (MILLEX-GV 0.22 μm Filter unit, 3slgv013SL, Lot. R2NN83622, MILLIPORE). […]

A further data set concerns the target T1, meltrin α (Homo sapiens, UniProt O43184, E208G/T209S).
T1 construct: had been converted to mature meltrin α having the prodomain deleted (molecular weight 68 kDa); made in house; host or cells: COS-1
T1 sequence (O43184 208-738 isoform O43184-2 E208G/T209S): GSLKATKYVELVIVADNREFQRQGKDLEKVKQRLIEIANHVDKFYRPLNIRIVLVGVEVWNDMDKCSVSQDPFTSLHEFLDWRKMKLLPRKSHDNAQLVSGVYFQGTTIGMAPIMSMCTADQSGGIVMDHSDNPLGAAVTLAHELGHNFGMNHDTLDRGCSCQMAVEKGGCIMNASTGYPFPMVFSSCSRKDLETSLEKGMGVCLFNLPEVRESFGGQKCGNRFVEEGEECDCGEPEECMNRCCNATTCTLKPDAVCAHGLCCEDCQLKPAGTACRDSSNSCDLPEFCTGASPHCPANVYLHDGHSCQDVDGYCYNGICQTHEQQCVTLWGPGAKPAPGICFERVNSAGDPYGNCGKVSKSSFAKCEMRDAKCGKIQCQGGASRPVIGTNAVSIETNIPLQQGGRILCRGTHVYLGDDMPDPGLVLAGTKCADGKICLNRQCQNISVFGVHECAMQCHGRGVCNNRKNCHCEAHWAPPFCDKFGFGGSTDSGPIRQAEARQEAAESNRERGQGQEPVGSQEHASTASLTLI
As to the kind of experiment: Inhibition of protease activity of meltrin α (rhIGF-BP3 cleavage, western blotting). Type of data set: biochemical. To be noted: low molecular weight compound 10 μg/mL; rhIGF-BP3 band. On the procedure:
Thrombin (Amersham Biosciences) was added to the purified meltrin α-STFLAG prepared in Example 5, and mixture was kept at 25° C. for 15 hours. When the solution after the reaction was examined by repeating the procedure of Example 5, the human meltrin α containing the prodomain (molecular weight 92 kDa) had been converted to mature meltrin α having the prodomain deleted (molecular weight 68 kDa). For measuring the enzymatic activity of the meltrin α, the solution after the prodomain cleavage with thrombin followed by inactivation of the thrombin by 10 mM APMSF (Wako Pure Chemical Industries, Ltd.) was used. The disappearance of the thrombin activity was confirmed by using the synthetic substrate for the thrombin on the reaction solution. […]
The anti-human meltrin α antibodies produced in Examples 6 and 7 were evaluated on their activity for inhibiting protease activity of meltrin α by using the protease activity assay system of Example 9. […] After the reaction, the reaction solution was electrophoresed by SDS-PAGE, and the rhIGF-BP3 was detected by western blotting.
According to the method of Example 9, activity of the low molecular weight compound for inhibiting protease activity of the meltrin α was assayed as described below. […] After the reaction, the reaction solution was electrophoresed by SDS-PAGE, and the rhIGF-BP3 was detected by western blotting.

The subject of a further data set is adipocyte. As to the kind of experiment: Toxicity for the adipocyte (WST1 assay). Format: cell-based, human. The note with it: at the concentration used in the assay (0.3 to 10 μg/mL). Here is the method: Toxicity of the test substance to the adipocyte was examined by WST1 assay. More specifically, Premix WST-1 Cell Proliferation Assay System (Takara Shuzo Co., Ltd.) was added at 10 μL/well, and after incubating at 37° C. for 60 minutes in a CO2 incubator, absorbance (450 nm-650 nm) was measured to examine influence on the adipocyte.
as §1
Background: Tetrazolium assays rely on reduction of a dye to a coloured formazan, in cell work by metabolically active cells.

In the oligonucleotide strings, read from the 5' end, every base follows the letter of its sugar. An asterisk marks phosphorothioate; unmarked linkages are phosphodiester. Other units and linkages are bracketed, terminal groups are in braces. A string of capitals states the bases alone. d = 2'-deoxy (DNA)

With “HS0307A: phosphorothioate antisense sequence CACGGGCAGCGGGCGCGCTGCCAT near the 5′ end of the coding region of human meltrin α (antisense dC*dA*dC*dG*dG*dG*dC*dA*dG*dC*dG*dG*dG*dC*dG*dC*dG*dC*dT*dG*dC*dC*dA*dT)”, in the data set on meltrin α mRNA, the “suppression of level of expression of the meltrin α” value is listed as “about 70%”. Also, the “accumulation of the neutral fat in the preadipocyte” value in the data set with human preadipocyte (5 days after differentiation stimulation, compared to the sense sequence group) is given as “suppressed to a greater degree”.
Consider `Oc1c(C(Nc2ccccn2)c2ccccc2)ccc2cccnc12` (centres unmarked) [M82463, 7-[phenyl(pyridine-2-ylamino)methyl]quinoline-8-ol], for which the “activity for inhibiting protease activity of meltrin α” value on meltrin α is “suppressed the disappearance of the rhIGF-BP3”. Further, the “adipocyte proliferation and differentiation” value in the data set on human preadipocyte (0.3 to 10 μg/mL, DMSO 0.2%) was “suppressed the adipocyte proliferation and differentiation in a dose dependent manner”. Besides, in the data set on adipocyte, the cytotoxicity result is reported as “no cytotoxicity was found”.
